From paper PMC2497451 (Anesthesia and analgesia, 2008)

Molecular target: T1, adult human muscle nicotinic acetylcholine receptor (nAChR, α2βεδ) (Homo sapiens, UniProt P02708+Q04844+Q07001)
Test: cell-based
Settings: not given

T1 sequence (P02708 21-457): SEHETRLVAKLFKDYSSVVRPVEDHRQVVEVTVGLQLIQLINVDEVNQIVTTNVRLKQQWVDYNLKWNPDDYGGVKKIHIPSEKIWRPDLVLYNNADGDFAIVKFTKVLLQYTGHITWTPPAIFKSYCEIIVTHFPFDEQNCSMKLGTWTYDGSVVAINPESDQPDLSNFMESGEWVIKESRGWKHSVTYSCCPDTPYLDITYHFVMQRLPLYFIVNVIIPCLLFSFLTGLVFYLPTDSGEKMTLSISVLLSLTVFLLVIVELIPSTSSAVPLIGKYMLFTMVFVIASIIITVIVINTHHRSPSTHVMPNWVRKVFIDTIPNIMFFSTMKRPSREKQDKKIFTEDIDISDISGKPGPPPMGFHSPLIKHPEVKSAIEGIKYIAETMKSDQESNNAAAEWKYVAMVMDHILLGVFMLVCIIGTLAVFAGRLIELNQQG
T1 sequence (Q04844 21-493): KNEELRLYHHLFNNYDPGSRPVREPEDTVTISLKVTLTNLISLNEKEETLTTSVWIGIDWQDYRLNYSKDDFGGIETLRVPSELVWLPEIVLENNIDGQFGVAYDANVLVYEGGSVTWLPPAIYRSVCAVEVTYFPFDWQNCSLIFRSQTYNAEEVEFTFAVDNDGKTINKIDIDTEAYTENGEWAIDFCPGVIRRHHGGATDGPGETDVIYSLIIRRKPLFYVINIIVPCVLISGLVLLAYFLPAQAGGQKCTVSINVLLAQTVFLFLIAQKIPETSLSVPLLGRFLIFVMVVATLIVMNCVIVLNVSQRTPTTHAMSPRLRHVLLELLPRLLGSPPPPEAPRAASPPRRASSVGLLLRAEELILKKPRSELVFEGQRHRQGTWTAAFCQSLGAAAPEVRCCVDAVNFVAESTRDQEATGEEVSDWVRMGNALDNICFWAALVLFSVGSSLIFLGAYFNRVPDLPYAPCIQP
T1 sequence (Q07001 22-517): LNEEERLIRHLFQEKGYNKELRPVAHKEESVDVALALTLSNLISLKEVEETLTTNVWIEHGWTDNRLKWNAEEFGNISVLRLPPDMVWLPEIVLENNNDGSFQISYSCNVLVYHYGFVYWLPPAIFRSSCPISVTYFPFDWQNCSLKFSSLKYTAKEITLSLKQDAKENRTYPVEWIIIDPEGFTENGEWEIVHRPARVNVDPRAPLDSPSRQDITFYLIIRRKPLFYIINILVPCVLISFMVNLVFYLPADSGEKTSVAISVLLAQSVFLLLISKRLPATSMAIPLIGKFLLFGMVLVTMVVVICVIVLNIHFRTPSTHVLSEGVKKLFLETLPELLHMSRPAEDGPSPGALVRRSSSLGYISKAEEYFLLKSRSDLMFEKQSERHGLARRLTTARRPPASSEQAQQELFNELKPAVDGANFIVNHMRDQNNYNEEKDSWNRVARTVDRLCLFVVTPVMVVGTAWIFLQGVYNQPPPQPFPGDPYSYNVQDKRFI
T1 sequence (P11230 24-501 partner): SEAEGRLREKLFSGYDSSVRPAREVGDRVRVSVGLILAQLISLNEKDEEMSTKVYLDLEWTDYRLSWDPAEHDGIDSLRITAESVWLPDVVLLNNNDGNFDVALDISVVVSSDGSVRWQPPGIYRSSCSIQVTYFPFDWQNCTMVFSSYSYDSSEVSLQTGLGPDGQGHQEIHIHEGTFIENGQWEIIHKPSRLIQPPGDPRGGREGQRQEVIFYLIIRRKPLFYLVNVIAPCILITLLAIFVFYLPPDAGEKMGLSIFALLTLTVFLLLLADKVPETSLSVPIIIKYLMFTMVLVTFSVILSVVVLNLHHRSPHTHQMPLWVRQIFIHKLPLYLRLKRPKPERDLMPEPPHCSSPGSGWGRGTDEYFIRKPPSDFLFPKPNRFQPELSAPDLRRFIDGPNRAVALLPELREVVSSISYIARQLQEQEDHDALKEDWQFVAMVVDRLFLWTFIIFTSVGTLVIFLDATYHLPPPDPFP

Q: With COc1cc2c3cc1Oc1cc(ccc1O)C[C@@H]1c4c(cc(OC)c(O)c4Oc4ccc(cc4)C[C@@H]3N(C)CC2)CC[N+]1(C)C [(+)-tubocurarine] as the molecule, how does the IC50 read?
A: The IC50 was 24 ± 2 nM.

Q: With COc1ccc(C[C@@H]2c3cc(OC)c(OC)cc3CC[N@+]2(C)CCC(=O)OCCCCCOC(=O)CC[N@@+]2(C)CCc3cc(OC)c(OC)cc3[C@H]2Cc2ccc(OC)c(OC)c2)cc1OC [cisatracurium] as the molecule, how does the IC50 read?
A: Its IC50 is 10 ± 1 nM.

Q: With CC(=O)O[C@H]1C[C@@H]2CC[C@@H]3[C@H](CC[C@@]4(C)[C@H]3C[C@H]([N+]3(C)CCCCC3)[C@@H]4OC(C)=O)[C@@]2(C)C[C@@H]1[N+]1(C)CCCCC1 [pancuronium] as the molecule, how does the IC50 read?
A: The IC50 was 6.3 ± 0.8 nM.

Molecular target: T1, adult human muscle nicotinic acetylcholine receptor (nAChR, α2βεδ)
Test: not given
Settings: 300 μM ACh, -50 mV, pH 7.3, room temperature; competitive

Q: For COc1ccc(CC2c3cc(OC)c(OC)cc3CC[N+]2(C)CCC(=O)OCCCCCOC(=O)CC[N+]2(C)CCc3cc(OC)c(OC)cc3C2Cc2ccc(OC)c(OC)c2)cc1OC (stereo not shown) [atracurium], which IC50 is on record?
A: Its IC50 is 17 ± 2 nM.

Q: How did the IC50 turn out when COc1ccc2cc1Oc1cc3c(cc1OC)CC[N+](C)(C)[C@H]3Cc1ccc(cc1)Oc1c(OC)c(OC)cc3c1[C@@H](C2)[N+](C)(C)CC3 [metocurine] was run?
A: Its IC50 is 18 ± 2 nM.

Q: With C=CC[N+]1([C@H]2C[C@H]3[C@@H]4CC[C@H]5C[C@H](O)[C@@H](N6CCOCC6)C[C@]5(C)[C@H]4CC[C@]3(C)[C@H]2OC(C)=O)CCCC1 [rocuronium] as the molecule, how does the IC50 read?
A: Its IC50 is 17 ± 2 nM.

Q: Which IC50 does the source give for CC(=O)O[C@H]1C[C@@H]2CC[C@@H]3[C@H](CC[C@@]4(C)[C@H]3C[C@H]([N+]3(C)CCCCC3)[C@@H]4OC(C)=O)[C@@]2(C)C[C@@H]1N1CCCCC1 [vecuronium] here?
A: Its IC50 is 15 ± 2 nM.
